Source: patent publication US20250235446A1, “COMPOSITION FOR INHIBITING METASTASIS AND ENHANCING ANTICANCER DRUG SENSITIVITY” (Korea Advanced Institute of Science and Technology, priority 2020, published 2025)

Assays:
[1] = tested on: A549 cells; experiment: Western blot of phenotype-related proteins (E-CAD, ZEB1) in EMT-induced lung cancer cells; format: cell-based
Method: The activity of TGF-β in a tumor microenvironment performs various functions, such as promoting cancer growth and EMT. Cancer cells were treated with TGF-β, an external stimulus, to induce EMT, and the results were illustrated in FIG. 1. To this end, A549 cells (KCBL No. 10185) as a lung cancer cell line were purchased from the Korean Cell Line Bank (KCLB). EMT was induced by treating the A549 cells with TGF-β (5 ng/mL, Peprotech, Cranbury, NJ, USA) for 48 hours. Changes in protein expression of cancer cells were confirmed through western blot analysis in the following process. First, cells were lysed in a lysis buffer [including 20 mM HEPES, pH 7.2, 150 mM NaCl, 0.5% Triton X-100, 10% glycerol, protease/phosphatase inhibitor mixture (protease/phosphatase inhibitor cocktail (Thermofisher, Waltham, MA))]. The lysate was centrifuged at 13,000 rpm at 4° C. for 20 minutes, and the supernatant was obtained and separated by SDS-PAGE, and then subjected to western blot analysis. To observe the amounts of proteins, E-cadherin (sc-21791), p53 (sc-126), SMAD4 (sc-7966), ZEB1 (sc-515797), mouse IgG (sc-2025) and rabbit IgG (#sc-2027) antibodies (purchased from Santa Cruz Biotechnology (Santa Cruz, CA, USA)) were used. In addition, ERK1/2 (#9102), phospho-ERK1/2 (#9106), phospho-MEK1/2 (#9121) and MYC (#13987) antibodies (Cell Signaling Technology (Beverly, MA, USA)) were used and the amounts of the proteins were observed. In addition, the rabbit polyclonal anti-GAPDH antibody was provided and used from the Korea Research Institute of Bioscience and Biotechnology.
TGF-β-treated cancer cells and -untreated cancer cells were treated with Nutlin-3a (5 μM, Sigma, St. Louis, Mo) to activate p53. It was confirmed whether the epithelial cell phenotype was restored according to p53 activation, and the results were shown in FIG. 2. At this time, after inducing EMT of A549 cells under the same conditions as in Example 1-1, Nutlin-3a (1 μM, Sigma, St. Louis, Mo) was treated, and Western blot and qRT-PCR were performed in the same method as in Example 1-1. […]

[2] = tested on: A549 cells; experiment: qRT-PCR of genes related to mesenchymal cells, epithelial cells and stemness; format: cell-based
Method: In addition, qRT-PCR was performed to perform transcript analysis for all genes (n=3, mean±SD). The qRT-PCR analysis was performed using a PCR system (Veriti 96well Thermal Cycler, Applied Biosystems, Waltham, MA, USA), and the qRT-PCR analysis was performed using the QuantStudio 5 real-time PCR system (Applied Biosystems, Foster City, CA), samples containing 20 μL of cDNA, primers, and SYBR Master Mix (Genet Bio, Daejeon, Korea).
TGF-β-treated cancer cells and -untreated cancer cells were treated with Nutlin-3a (5 μM, Sigma, St. Louis, Mo) to activate p53. It was confirmed whether the epithelial cell phenotype was restored according to p53 activation, and the results were shown in FIG. 2. At this time, after inducing EMT of A549 cells under the same conditions as in Example 1-1, Nutlin-3a (1 μM, Sigma, St. Louis, Mo) was treated, and Western blot and qRT-PCR were performed in the same method as in Example 1-1.
In addition, in order to measure cell viability, the A549 cells from which the SMAD4 gene was deleted as described above were seeded in a 96-well plate and after 24 hours, EMT was induced and Nutlin-3a (1 μM) was treated, and then an anticancer drug 5-FU (1 μM) or DOX (0.5 μM) was treated for 5 days. In FIG. 4A, after 5 days, the cells were imaged using IncuCyte ZOOM (Sartorius, Gottingen, Germany), and the cell viability was measured by confluence of adherent living cells using IncuCyte software. In addition, the results were confirmed by qRT-PCR in the same manner as in Example 1-1 and illustrated in FIG. 4B (n=3, mean±SD).
Alternatively, in the same manner as in Example 2, the A549 cells from which the SMAD4 gene was deleted were treated with shRNAs set forth in SEQ ID NO: 2 (shERK1) and SEQ ID NO: 3 (shERK2), thereby deleting the ERK gene. Then, the results were confirmed by western blot analysis or qRT-PCR (n=3, mean±SD).

[3] = A549 cells, TGF-β 5 ng/mL for 48 hours

Molecule | epithelial cell phenotype (E-CAD+/ZEB1−), protein expression ([1]; TGF-β-treated A549 cells (TGF-β maintained)) | epithelial cell phenotype (E-CAD+/ZEB1−), protein expression ([1]; TGF-β-untreated A549 cells) | activity of SNAI1 gene (mesenchymal) ([2]; TGF-β-treated A549 cells) | activity of TWIST1 gene (mesenchymal) ([2]; TGF-β-treated A549 cells) | activity of ZEB1 gene (mesenchymal) ([2]; TGF-β-treated A549 cells) | activity of genes CDH1 and EpCAM related to epithelial cells ([2]; TGF-β-treated A549 cells) | expression of the E-cadherin protein [1, 3] | expression of GRHL2 and OVOL1 genes related to epithelial cells [2, 3] | expression of genes CDH1 and EpCAM related to epithelial cells [2, 3] | expression of genes SMAD4, ZEB1, VIM, SNAI1, SNAI2 related to mesenchymal cells [2, 3]
COc1ccc(C2=N[C@@H](c3ccc(Cl)cc3)[C@@H](c3ccc(Cl)cc3)N2C(=O)N2CCNC(=O)C2)c(OC(C)C)c1 [Nutlin-3a] | converged to inactivation of E-CAD and inactivation of ZEB1 | restored | suppressed | almost no change | significantly inhibited | rather decreased or still showed the low activity |  |  |  | 
transforming growth factor beta [TGF-β] |  |  |  |  |  |  | reduced | did not show significant changes | reduced | activated
